Experiments:
[1] = system: Urinary KIM-1; assay: Urinary KIM-1 kidney injury in rats given vancomycin and/or protamine; settings: for Contrast KIM-1: urinary KIM-1, vancomycin 150 mg/kg i.v., protamine sulfate 1.5 mg/kg i.v.
Method: Male Sprague-Dawley rats (n = 19; age 8–10 weeks; 268–304 g; Envigo, Indianapolis, IN, USA) underwent double jugular catheterization ([33]) (Fig. 3A). Surgery was performed under ketamine (100 mg/kg of body weight) and xyalzine (10 mg/kg of body weight) anesthesia with buprenorphine (0.02 mg/kg of body weight) given post-operatively for pain management. Animals were allowed to recover 4 days before the administration of any drug. Animals were housed in metabolic cages starting 1 day prior to day 0 with access to food and water ad libitum for the duration of the study (Fig. 3B).
Animals were divided into three experimental treatment protocols. Using a dedicated jugular vein for dosing, the animals received clinical grade intravenous protamine and/or vancomycin in doses allometrically scaled to humans according to the following protocols: (i) protamine sulfate (1.5 mg/kg of body weight) and vancomycin (150 mg/kg of body weight) (n = 6); (ii) protamine only (1.5 mg/kg of body weight) with saline sham (sham for volume of vancomycin) (n = 7); or (iii) vancomycin only (150 mg/kg of body weight) with saline sham (sham for volume of protamine) (n = 6) ([34][–][36]). Saline sham was given to match the volumes of protamine and vancomycin doses to maintain euvolemia. On day 0, all animals received only iohexol (51.8 mg/day) intravenously to establish baseline GFR measurements. Drugs were administered as described above by treatment protocols to all groups on days 1–4. Infusion times for each of the drugs include (i) protamine sulfate, 5 minutes; (ii) vancomycin and iohexol, 2 minutes; and (iii) saline sham, 5 or 2 minutes depending on what the sham was replacing.
Urine samples were collected daily, and volumes were measured starting from day 0 to day 4. Samples were centrifuged at 500 g for 10 minutes, and the resulting supernatant was aliquoted (1.5 mL) and stored at −80°C for renal biomarker analysis later.
Urinary samples were analyzed for KIM-1 using the Milliplex MAP Rat Kidney Toxicity Magnetic Bead Panel 1 (EMD Millipore Corporation, Charles, MO, USA) according to the manufacturer’s directions and as previously described ([34], [36], [37]). Briefly, neat urine aliquots were mixed with monoclonal antibody-coated magnetic microbeads (Bead Panel 1) and run on a 96-well plate, which also included a standard curve. Biomarker data were acquired, and concentrations were analyzed using Belysa Immunoassay Curve-Fitting Software V1 (MilliporeSigma, Darmstadt, Germany). The amount of urinary KIM-1 excreted over the 24-h collection period was obtained by multiplying the urinary concentration by 24-h urinary volume.
An omnibus test, i.e., joint tests (multi-degree of freedom) of the interaction and main effects, which is similar to the F test in ANOVA, was used initially (STATA 17.0 BE, StataCorp LLC, College Station, TX, USA). Only models with significant interaction at P < 0.05 were selected for post hoc analysis (i.e., identification of the difference between treatment groups and days). Margins were calculated for a full factorial of the variables, i.e., main effects for each variable and interactions. Referent groups were pre-treatment baseline values and protamine alone as a treatment, except where noted. […] LOWESS graphs were produced in R version 4.2.2 using ggplot2. […] All tests were two-tailed; a P < 0.05 was required for statistical significance. Graphs for cellular studies were generated using GraphPad version 9.3.1 and were fit with a log(inhibitor) vs normalized response function after log transformation.

[2] = system: megalin; design: method as in Hori et al. ([18]); settings: quartz crystal microbalance analysis, ref Hori et al. ([18]), cited from earlier work
From the text: Hori et al. ([18]) performed a study to evaluate the binding of megalin to vancomycin and cisplatin, as well as aminoglycosides and colistin. They utilized quartz crystal microbalance analysis to assess the dir ...

[3] = system: acute kidney injury; settings: cited from earlier work
From the text: Vancomycin is one of the most widely used antibiotics within United States in-patient healthcare systems, accounting for 11.9% of all antibiotic use for inpatient antimicrobials (1,258 out of 10,612) in a 2015 hospital survey ([1]). As a tricyclic glycopeptide, it is primarily indicated for severe Gram-positive bacterial infections, including methicillin-resistant Staphylococcus aureus (MRSA) ([2]). For about 70 years now, vancomycin has remained a first-line antibiotic widely used and studied across people of all ages. Despite its efficacy in the treatment of MRSA infections, one common limit ... || In humans, VAN (creatinine defined) ([41]) occurs between an interquartile range of 6–13 days ([42]), and creatinine is known to lag behind GFR ([43]). Serum creatinine is the most commonly utilized biomarker to classify AKI in patients ([41], [44][–][46]); however, creatinine is non-sensitive, non-specific, and slowly reactive to kidney function as compared to GFR ([47]). GFR can drop 50% before changes in SCr are detected ([48][–][50]). As such, acute injuries from vancomycin take a median of 6 days to be detectable with creatinine alone ([51]). Therefore, this study focused on the pre-clini ... || Originally derived from salmon fish sperm (salmine), protamine is a highly positively charged protein consisting of 32 amino acids. Currently, it is widely used as an effective agent to neutralize heparin using electrostatic bonds made between the cationic arginine groups of protamine and the anionic heparin in a 1:1 ratio ([6]). Specifically, protamine shares binding sites with heparin (current target for FDA-approved use) and megalin ([30], [31]). On this note, a clinical limitation for the use of protamine arises for patients who require heparin infusions, such as post-diabetic foot infecti ...

[4] = within group, day 2 vs 1 (baseline)
[5] = within group, day 3 vs 1 (baseline)
[6] = within group, day 4 vs 1 (baseline)

In the case of `CN[C@H](CC(C)C)C(=O)N[C@H]1C(=O)N[C@@H](CC(N)=O)C(=O)N[C@H]2C(=O)N[C@H]3C(=O)N[C@H](C(=O)N[C@H](C(=O)O)c4cc(O)cc(O)c4-c4cc3ccc4O)[C@H](O)c3ccc(c(Cl)c3)Oc3cc2cc(c3O[C@@H]2O[C@H](CO)[C@@H](O)[C@H](O)[C@H]2O[C@H]2C[C@](C)(N)[C@H](O)[C@H](C)O2)Oc2ccc(cc2Cl)[C@H]1O` [Vancomycin], the “KIM-1 compared to protamine alone (in words)” value ([1]; day 2, 24 h after drug administration) is reported as “significantly increased urinary KIM-1”, the “KIM-1 change from baseline of day 1 (in words)” value ([1]; each animal group compared to itself, 4 days) is reported as “elevated KIM-1 on days 2 and 3” and the “Contrast KIM-1” value ([1]; vs protamine alone, day 1 (prior to any drug), n = 6-7) is reported as 0.72 ng/24 h. The “Contrast KIM-1” value ([1]; vs protamine alone, day 2 (24 h after drug administration)) was 24.92 ng/24 h, the “Contrast KIM-1” value ([1]; vs protamine alone, day 2 (24 h after drug administration), listed as vancomycin) was 24.9 ng/24 h and the “Contrast KIM-1” value ([1]; vs protamine alone, day 3) was 20.88 ng/24 h. The “Contrast KIM-1” value ([1]; vs protamine alone, day 4) was 9.00 ng/24 h, the “Contrast KIM-1” value [1, 4] was 24.81 ng/24 h and the “Contrast KIM-1” value [1, 5] was 20.50 ng/24 h. The “Contrast KIM-1” value [1, 6] was 8.55 ng/24 h, the “95% confidence interval of contrast KIM-1” value (shortened to “95% confidence interval”) ([1]; vs protamine alone, day 1) was “(−22.3–23.8) ng/24 h” and the “95% confidence interval” value ([1]; vs protamine alone, day 2) was “(1.9–48.0) ng/24 h”. For the same compound, the “95% confidence interval” value ([1]; vs protamine alone, day 2, listed as vancomycin) was 1.87–48.0 ng/24 h, the “95% confidence interval” value ([1]; vs protamine alone, day 3) was “(−2.2–43.9) ng/24 h” and the “95% confidence interval” value ([1]; vs protamine alone, day 4) was “(−14.0–32.0) ng/24 h”. The “95% confidence interval” value [1, 4] was “(5.2–44.4) ng/24 h”, the “95% confidence interval” value [1, 5] was “(0.9–40.1) ng/24 h” and the “95% confidence interval” value [1, 6] was “(−11–28.1) ng/24 h”. For the same compound, the “Direct binding to megalin (in words)” value [2] was “megalin is bound specifically”, the “Time to VAN (creatinine defined), interquartile range” value ([3]; humans, after treatment initiation) was 6 to 13 days and the “Median time for acute injury to be detectable with creatinine alone” value ([3]; humans) was 6 days. The “Risk of AKI compared to other antibiotics” value ([3]; systematic review and meta-analysis) was “up to 2.5 times greater”.
In the case of `CNC(C)C1CCC(N)C(OC2C(N)CC(N)C(OC3OCC(C)(O)C(NC)C3O)C2O)O1` (centres unmarked) [gentamicin], the “Direct binding to megalin (in words)” value [2] is given as “megalin is bound specifically”.
For colistin, the “Direct binding to megalin (in words)” value [2] is listed as “megalin is bound specifically”.
For `CC1(C)C[C@@H]1C(=O)N/C(=C\CCCCSC[C@H](N)C(=O)O)C(=O)O` [cilastatin], the “Competition of drug binding to megalin (in words)” value ([2]; binding of gentamicin, colistin, vancomycin and cisplatin) is given as “the binding of all the drugs listed above is competed by cilastatin”.
In the case of `N.N.[Cl][Pt][Cl]` [cisplatin], the “Direct binding to megalin (in words)” value [2] is given as “megalin is bound specifically”.

Source: paper PMC11823679, “Protamine protects against vancomycin-induced kidney injury” (Antimicrobial Agents and Chemotherapy, 2025)
